# Values joined by “and” are separate entries in the source; they are usually repeats but may differ in a detail not shown here. Equal values may be shown once. Read-outs that look alike come from different tables or passages of the source.
# Biological target: T1, MRGPRX4 (Homo sapiens, UniProt Q96LA9)
# T1 construct: expressed in transfected cells; host or cells: HEK293T
# Test: IP1 accumulation HTRF assay, MRGPRX4
# Format: cell-based
# Parameters: key to IP1 Basal / IP1 accumulation with YM (Figure 1c) / response to agonist, MRGPRX4 / IP1 accumulation: % IP1: unstimulated mock-transfected = 0%, fully stimulated MRGPRX4 = 100%
# T1 sequence (Q96LA9 whole entry): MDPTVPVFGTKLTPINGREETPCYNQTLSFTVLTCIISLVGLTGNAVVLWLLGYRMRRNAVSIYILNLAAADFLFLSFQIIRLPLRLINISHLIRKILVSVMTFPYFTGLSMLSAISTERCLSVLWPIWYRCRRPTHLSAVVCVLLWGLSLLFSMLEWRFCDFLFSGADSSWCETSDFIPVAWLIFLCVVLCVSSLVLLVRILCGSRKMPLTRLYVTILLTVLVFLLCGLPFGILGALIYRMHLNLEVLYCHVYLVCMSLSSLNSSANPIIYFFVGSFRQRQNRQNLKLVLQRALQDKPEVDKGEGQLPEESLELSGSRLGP
compound,measurement,setting,value
CC(C)[C@H]1CC[C@H](C(=O)N[C@H](Cc2ccccc2)C(=O)O)CC1 [Nateglinide],EC50,"MRGPRX4 0.25 pg DNA/cell, individual experiments, read-out: potency (Figure 1b top) (converted)",13.5 µM (2×) and 12.5 µM
same,Emax,"MRGPRX4 0.5 pg DNA/cell, individual experiments, read-out: efficacy (Figure 1b bottom)",95.7%
same,EC50,"MRGPRX4 0.5 pg DNA/cell, individual experiments, read-out: potency (Figure 1b top) (converted)",12.3 µM and 9.23 µM
same,Emax,"MRGPRX4 1 pg DNA/cell, individual experiments, read-out: efficacy (Figure 1b bottom)",104%
same,EC50,"MRGPRX4 1 pg DNA/cell, individual experiments, read-out: potency (Figure 1b top) (converted)",10.9 µM and 9.68 µM and 8.2 µM
same,Emax,"MRGPRX4 2 pg DNA/cell, individual experiments, read-out: efficacy (Figure 1b bottom)",97.2%
same,EC50,"MRGPRX4 2 pg DNA/cell, individual experiments, read-out: potency (Figure 1b top) (converted)",6.87 µM and 6.27 µM and 6.64 µM
same,IP1 Basal,"MRGPRX4 (Fig. 1A), HEK293T, normalized to 100 μM nateglinide",14.95
same,EC50,"MRGPRX4 (Fig. 1A), HEK293T, normalized to 100 μM nateglinide, read-out: IP1 EC50",10.7 µM
same,EC50,"MRGPRX4, HEK293T (Fig. 1A), read-out: EC50 concentration, IP1 accumulation",10.6 µM
same,IP1 accumulation,"MRGPRX4: 2pg/cell, log [Nateglinide] (M) -4, Fig S1b/c",100
same,IP1 accumulation,"MRGPRX4: 2pg/cell, log [Nateglinide] (M) -4.69897, Fig S1b/c",88.6878 and 83.9734
same,IP1 accumulation,"MRGPRX4: 2pg/cell, log [Nateglinide] (M) -5.39794, Fig S1b/c",45.9251 and 47.3838
same,IP1 accumulation,"MRGPRX4: 2pg/cell, log [Nateglinide] (M) -6.09691, Fig S1b/c",18.7171 and 20.7267
same,IP1 accumulation,"MRGPRX4: 2pg/cell, log [Nateglinide] (M) -6.79588, Fig S1b/c",11.3987 and 15.6075
same,IP1 accumulation,"MRGPRX4: 2pg/cell, log [Nateglinide] (M) -7.49485, Fig S1b/c",10.9025 and 14.1936
same,IP1 Basal,MRGPRX4 DNA 0.25 pg/cell (Fig. S1),4.926
same,EC50,"MRGPRX4 DNA 0.25 pg/cell (Fig. S1), read-out: IP1 EC50",13.6 µM
same,Emax,"MRGPRX4 DNA 0.25 pg/cell (Fig. S1), read-out: IP1 Emax",84.4%
same,Emax,"MRGPRX4 DNA 0.25 pg/cell (Fig. S1), read-out: IP1 span",79.5%
same,IP1 Basal,MRGPRX4 DNA 0.5 pg/cell (Fig. S1),6.421
same,EC50,"MRGPRX4 DNA 0.5 pg/cell (Fig. S1), read-out: IP1 EC50",11 µM
same,Emax,"MRGPRX4 DNA 0.5 pg/cell (Fig. S1), read-out: IP1 Emax",97.5%
same,Emax,"MRGPRX4 DNA 0.5 pg/cell (Fig. S1), read-out: IP1 span",91%
same,IP1 Basal,MRGPRX4 DNA 1 pg/cell (Fig. S1),9.219
same,EC50,"MRGPRX4 DNA 1 pg/cell (Fig. S1), read-out: IP1 EC50",9.79 µM
same,Emax,"MRGPRX4 DNA 1 pg/cell (Fig. S1), read-out: IP1 Emax",106%
same,Emax,"MRGPRX4 DNA 1 pg/cell (Fig. S1), read-out: IP1 span",96.7%
same,IP1 Basal,MRGPRX4 DNA 2 pg/cell (Fig. S1),11.77
same,EC50,"MRGPRX4 DNA 2 pg/cell (Fig. S1), read-out: IP1 EC50",6.8 µM
same,Emax,"MRGPRX4 DNA 2 pg/cell (Fig. S1), read-out: IP1 Emax",108%
same,Emax,"MRGPRX4 DNA 2 pg/cell (Fig. S1), read-out: IP1 span",96.3%
same,EC50,"MRGPRX4 DNA […] (Fig. S1), read-out: IP1 EC50",13.9 µM
same,Emax,"MRGPRX4 DNA […] (Fig. S1), read-out: IP1 Emax",74.8%
same,Emax,"MRGPRX4 DNA […] (Fig. S1), read-out: IP1 span",72.2%
same,IP1 accumulation,"MRGPRX4 alone, log [Nateglinide] (M) -4.69897, Fig S3a-c",73.8798 and 88.0796
same,IP1 accumulation,"MRGPRX4 alone, log [Nateglinide] (M) -5.39794, Fig S3a-c",42.3002 and 52.0108
same,IP1 accumulation,"MRGPRX4 alone, log [Nateglinide] (M) -6.09691, Fig S3a-c",21.697 and 30.974
same,IP1 accumulation,"MRGPRX4 alone, log [Nateglinide] (M) -6.79588, Fig S3a-c",15.7135 and 25.7363
same,IP1 accumulation,"MRGPRX4 alone, log [Nateglinide] (M) -7.49485, Fig S3a-c",14.3426 and 24.4649
same,normalized IP1 accumulation,"SP-FLAG-Nluc-HT7-MRGX4_Tet-GFP10-1D4, log [agonist] (M) -4.09691",53.7873 and 50.7716
same,normalized IP1 accumulation,"SP-FLAG-Nluc-HT7-MRGX4_Tet-GFP10-1D4, log [agonist] (M) -4.79588",39.105 and 47.513
same,normalized IP1 accumulation,"SP-FLAG-Nluc-HT7-MRGX4_Tet-GFP10-1D4, log [agonist] (M) -5.49485",24.2093 and 23.5323
same,normalized IP1 accumulation,"SP-FLAG-Nluc-HT7-MRGX4_Tet-GFP10-1D4, log [agonist] (M) -6.19382",9.755 and 12.1626
same,normalized IP1 accumulation,"SP-FLAG-Nluc-HT7-MRGX4_Tet-GFP10-1D4, log [agonist] (M) -6.89279",9.31 and 10.6126
same,normalized IP1 accumulation,"SP-FLAG-Nluc-HT7-MRGX4_Tet-GFP10-1D4, log [agonist] (M) -7.59176",10.0922 and 8.039
same,normalized IP1 accumulation,"SP-FLAG-Nluc-HT7-MRGX4_Tet-GFP10-1D4 no dox, log [agonist] (M) -4.79588",9.836 and 10.4491
same,normalized IP1 accumulation,"SP-FLAG-Nluc-HT7-MRGX4_Tet-GFP10-1D4 no dox, log [agonist] (M) -5.49485",7.573 and 7.949
same,normalized IP1 accumulation,"SP-FLAG-Nluc-HT7-MRGX4_Tet-GFP10-1D4 no dox, log [agonist] (M) -6.19382",7.652 and 7.516
same,normalized IP1 accumulation,"SP-FLAG-Nluc-HT7-MRGX4_Tet-GFP10-1D4 no dox, log [agonist] (M) -6.89279",8.115 and 7.953
same,normalized IP1 accumulation,"SP-FLAG-Nluc-HT7-MRGX4_Tet-GFP10-1D4 no dox, log [agonist] (M) -7.59176",8.427 and 8.747
same,normalized IP1 accumulation,"SP-Flag-MRGX4-1D4, log [agonist] (M) -4",90.7901 and 99.3577
same,normalized IP1 accumulation,"SP-Flag-MRGX4-1D4, log [agonist] (M) -4.69897",68.6541 and 83.0667
same,normalized IP1 accumulation,"SP-Flag-MRGX4-1D4, log [agonist] (M) -5.39794",34.48 and 31.1467
same,normalized IP1 accumulation,"SP-Flag-MRGX4-1D4, log [agonist] (M) -6.09691",13.1213 and 14.7496
same,normalized IP1 accumulation,"SP-Flag-MRGX4-1D4, log [agonist] (M) -6.79588",9.479 and 9.146
same,normalized IP1 accumulation,"SP-Flag-MRGX4-1D4, log [agonist] (M) -7.49485",7.648 and 7.711
same,normalized IP1 accumulation,"SP-Flag-MRGX4-GFP10-1D4, log [agonist] (M) -4.69897",81.9562 and 74.6812
same,normalized IP1 accumulation,"SP-Flag-MRGX4-GFP10-1D4, log [agonist] (M) -5.39794",38.7817 and 35.4094
same,normalized IP1 accumulation,"SP-Flag-MRGX4-GFP10-1D4, log [agonist] (M) -6.09691",15.3576 and 16.0977
same,normalized IP1 accumulation,"SP-Flag-MRGX4-GFP10-1D4, log [agonist] (M) -6.79588",8.66 and 9.498
same,normalized IP1 accumulation,"SP-Flag-MRGX4-GFP10-1D4, log [agonist] (M) -7.49485",9.929 and 8.168
same,IP1 Basal,"Tet-On MRGPRX4 1pg/cell, Dox 13 ng/mL (Fig. S5B)",-3.433
same,EC50,"Tet-On MRGPRX4 1pg/cell, Dox 13 ng/mL (Fig. S5B), read-out: IP1 EC50",19.2 µM
same,Emax,"Tet-On MRGPRX4 1pg/cell, Dox 13 ng/mL (Fig. S5B), read-out: IP1 Emax",17.4%
same,Emax,"Tet-On MRGPRX4 1pg/cell, Dox 13 ng/mL (Fig. S5B), read-out: IP1 span",20.8%
same,IP1 Basal,"Tet-On MRGPRX4 1pg/cell, Dox 40 ng/mL (Fig. S5B)",-3.380
same,EC50,"Tet-On MRGPRX4 1pg/cell, Dox 40 ng/mL (Fig. S5B), read-out: IP1 EC50",13.7 µM
same,Emax,"Tet-On MRGPRX4 1pg/cell, Dox 40 ng/mL (Fig. S5B), read-out: IP1 Emax",18.8%
same,Emax,"Tet-On MRGPRX4 1pg/cell, Dox 40 ng/mL (Fig. S5B), read-out: IP1 span",22.1%
same,IP1 Basal,"Tet-On MRGPRX4 1pg/cell, Dox 1100 ng/mL (Fig. S5B)",-3.039
same,EC50,"Tet-On MRGPRX4 1pg/cell, Dox 1100 ng/mL (Fig. S5B), read-out: IP1 EC50",10.8 µM
same,Emax,"Tet-On MRGPRX4 1pg/cell, Dox 1100 ng/mL (Fig. S5B), read-out: IP1 Emax",30.6%
same,Emax,"Tet-On MRGPRX4 1pg/cell, Dox 1100 ng/mL (Fig. S5B), read-out: IP1 span",33.7%
same,IP1 Basal,"Tet-On MRGPRX4 1pg/cell, Dox 3300 ng/mL (Fig. S5B)",-1.008
